Measurements published in patent EP2975033A1, “Improved cysteine-protease inhibitors” (Universitat Jaume I, priority 2014, dated 2016).
pIC50: −log10 of the molar value. Converted amounts (≈) assume the structure as drawn. “And” between values parts separate entries of the source, which are not always exact repeats. Equal entries are not always repeated. Where two headings read alike, the source gives them in different places.

Legend:
Falcipain 2 = target: T1, Falcipain 2 (Plasmodium falciparum, UniProt Q8I6U4); assay: Protease assay, fluorogenic substrate Z-Phe-Arg-AMC: Falcipain 2; format: biochemical; details: FP2=Falcipain2
T1 construct: made in house
T1 sequence (Q8I6U4 244-484): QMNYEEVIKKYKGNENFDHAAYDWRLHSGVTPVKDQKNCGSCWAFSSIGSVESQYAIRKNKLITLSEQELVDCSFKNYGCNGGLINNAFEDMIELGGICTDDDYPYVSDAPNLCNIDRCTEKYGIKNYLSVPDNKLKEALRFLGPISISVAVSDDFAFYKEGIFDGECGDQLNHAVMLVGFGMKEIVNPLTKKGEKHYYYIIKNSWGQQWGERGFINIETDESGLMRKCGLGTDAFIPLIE
Excerpt: (§1) 2.1.1. Protease Assays as shown in tables 1 and 2: Cathepsin L (human), Cathepsin B (human), Rhodesain (Trypanosoma brucei rhodesiense), Falcipain 2 (Plasmodium falciparum)
(§2) Enzyme assays used to identify inhibitors of the target cysteine proteases. The effect is detected measuring fluorescence increase due to hydrolysis of fluorogenic substrates by the target enzymes in absence and presence of potential inhibitors.
(§3) • a. Proteins (enzymes): • Cathepsin L (human liver) Calbiochem • Cathepsin B (human liver) Calbiochem • Rhodesain: recombinantly expressed according to ref.: Caffrey, C. R.; Hansell, E.; Lucas, K. D.; Brinen, L. S.; Hernandez, A. A.; Cheng, J.; Gwaltney, S. L., II; Roush, W. R.; Stierhof, Y. D.; Bogyo, M.; Steverding, D.; McKerrow, J. H. Active site mapping, biochemical properties and subcellular localization of rhodesain, the major cysteine protease of Trypanosoma • Falcipain 2: recombinantly expressed according to ref.: Pandey, K. C.; Wang, S. X.; Sijwali, P. S.; Lau, A. L.; McKerrow, J. H.; Rosenthal, P. J. The Plasmodium falciparum cysteine protease falcipain-2 captures its substrate, hemoglobin, via a unique motif. Proc. Natl. Acad. Sci. U.S.A. 2005, 102, 9138-9143. • b. Buffers: • Cathepsin B: 50 mM Tris-Puffer pH 6.5 mit 2 mM DTT, 5 mM EDTA, 200 mM NaCl, 0.005% Brij35 • Cathepsin L: 50 mM Tris-Puffer pH 6.5 mit 2 mM DTT, 5 mM EDTA, 200 mM NaCl, 0.005% Brij35 • Rhodesain: 50 mM Acetat-Puffer pH 5.5 mit 5 mM DTT, 5 mM EDTA, 200 mM NaCl, 0.005% Brij35 • Falcipain 2: 50 mM Acetat-Puffer pH 5.5 mit 5 mM DTT, 5 mM EDTA, 200 mM NaCl, 0.005% Brij35 • c. Substrates: • Cathepsin L: 6,25 µM Z-Phe-Arg-7-amino-4-methylcumarin, HCl von Bachem, Ex 380 nm, Em 460 nm • Cathepsin B: 100 µM Z-Phe-Arg-7-amino-4-methylcumarin, HCl von Bachem, Ex 380 nm, Em 460 nm • Rhodesain: 10µM Z-Phe-Arg-7-amino-4-methylcumarin, HCl von Bachem, Ex 380 nm, Em 460 nm • Falcipain 2: 25µM Z-Phe-Arg-7-amino-4-methylcumarin, HCl von Bachem, Ex 380 nm, Em 460 nm • Reference substance(s)/positive control(s): E64 • d. Solvent for inhibitors and substrates: DMSO 99,5% (GC) DC4540, Sigma • e. Measurement device: Tecan Fluorescence spectrophotometer infinite F200 Pro • f. Well plates: 96 well plates, Lia-Plate White, Greiner bio-one, flat bottom, high binding • g. Methodology: Substrates and inhibitor stock solutions are prepared in DMSO and diluted with the respective assay buffer (final DMSO concentration: […]). Enzyme stock solutions are diluted with assay buffer to yield a fluorescence increase of dF/min ≈ _20. Total volume: 200 µL (180 µL of assay buffer, 5 µL of enzyme solution, 10 µL of DMSO or inhibitor solution, 5 µL of substrate solution). Assays are started by the addition of substrate solution. Fluorescence increase is detected over a period of 10 - 30 min, depending on time dependent (30 min) or non-time dependent (10 min) inhibition. • h. Temp: 25 °C • i. DATA-[…] • Software: Grafit 5.013 • Ki values are calculated from IC50 values (obtained by the 4-parameter IC50 equation) using the Chen-Prusoff equation: Ki=IC50/(1 + [S]/Km)
(§4) In vitro inhibition of cysteine-proteases cruzain (CR) (Trypanosoma cruzi (T. cruzi)), rhodesain (RD) (T. brucei), cathepsin B (CB), falcipain (FP2) (Plasmodium falciparum) and cathepsin L (CL) was assessed by quantification of the resulting fluorescence emission of the proteolytic breakdown of synthetic compound Z-Phe-Arg-AMC (Bachem). The results of this determination are shown in tables 1 and 2 illustrated above.

Cathepsin B (human) = target: T2, Cathepsin B (human) (Homo sapiens, UniProt P07858); assay: Protease assay, fluorogenic substrate Z-Phe-Arg-AMC: Cathepsin B; format: biochemical; details: CB=CathepsinB; for pIC50: 25 °C, pH 6.5, 100 µM substrate, read-out: CBIC50micM
T2 construct: Cathepsin B (human liver) Calbiochem; purchased Calbiochem; host or cells: human liver (tissue-derived)
Excerpt: as §1, §2, §3, §4

cruzain (CR) = cruzain (CR) (Trypanosoma cruzi, UniProt P25779); assay: In vitro inhibition of cruzain, fluorescence of Z-Phe-Arg-AMC breakdown; format: biochemical
Chain of cruzain (CR) (P25779 123-467): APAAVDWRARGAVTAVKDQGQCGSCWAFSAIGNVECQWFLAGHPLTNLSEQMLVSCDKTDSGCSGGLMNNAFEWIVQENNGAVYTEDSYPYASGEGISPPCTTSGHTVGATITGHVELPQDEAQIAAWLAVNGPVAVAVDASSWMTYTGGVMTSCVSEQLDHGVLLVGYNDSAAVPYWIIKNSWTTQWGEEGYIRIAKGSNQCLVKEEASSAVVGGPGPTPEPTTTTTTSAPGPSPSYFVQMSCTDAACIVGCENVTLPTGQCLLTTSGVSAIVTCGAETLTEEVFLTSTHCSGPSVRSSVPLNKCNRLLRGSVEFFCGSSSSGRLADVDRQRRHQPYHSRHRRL
Experimental: as §2, §4

Cathepsin L (human) = target: T3, Cathepsin L (human) (Homo sapiens, UniProt P07711); assay: Protease assay, fluorogenic substrate Z-Phe-Arg-AMC: Cathepsin L; format: biochemical
T3 construct: Cathepsin L (human liver) Calbiochem; purchased Calbiochem; host or cells: human liver (tissue-derived)
T3 sequence (P07711 114-333): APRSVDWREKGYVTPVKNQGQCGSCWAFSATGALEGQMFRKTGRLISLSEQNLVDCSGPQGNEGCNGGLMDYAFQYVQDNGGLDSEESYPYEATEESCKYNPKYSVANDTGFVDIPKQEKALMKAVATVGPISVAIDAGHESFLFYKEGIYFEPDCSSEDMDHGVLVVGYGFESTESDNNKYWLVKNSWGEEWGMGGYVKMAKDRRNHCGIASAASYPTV
Excerpt: as §1, §2, §3, §4

Rhodesain = target: T4, Rhodesain (Trypanosoma brucei rhodesiense, UniProt Q95PM0); assay: Protease assay, fluorogenic substrate Z-Phe-Arg-AMC: Rhodesain; format: biochemical; details: for pIC50: RD=Rhodesain, 25 °C, pH 5.5, 10µM substrate
T4 construct: made in house
T4 sequence (Q95PM0 entry or part of it): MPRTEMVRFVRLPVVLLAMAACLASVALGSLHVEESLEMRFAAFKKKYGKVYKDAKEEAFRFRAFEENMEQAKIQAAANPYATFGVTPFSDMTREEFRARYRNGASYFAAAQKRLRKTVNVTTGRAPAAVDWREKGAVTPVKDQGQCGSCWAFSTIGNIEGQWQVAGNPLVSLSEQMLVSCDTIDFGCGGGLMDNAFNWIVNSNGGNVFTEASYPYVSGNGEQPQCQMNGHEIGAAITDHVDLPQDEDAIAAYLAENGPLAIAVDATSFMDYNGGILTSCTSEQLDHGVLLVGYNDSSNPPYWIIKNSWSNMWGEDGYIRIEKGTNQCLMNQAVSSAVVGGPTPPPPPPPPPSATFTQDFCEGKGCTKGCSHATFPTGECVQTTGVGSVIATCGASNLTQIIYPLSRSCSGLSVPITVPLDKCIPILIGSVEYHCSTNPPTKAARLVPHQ
Excerpt: as §1, §2, §3, §4

[1] = tested on: L. donovani strain MHOM/ET/67/L82; assay: Activity against L. donovani axenic amastigotes (Alamar Blue); format: cell-based; details: for IC50: Leishmania donovani
Experimental: (§5) For all the susceptibility assays with parasites and cells, each drug was tested in duplicate and each assay was repeated at least once. • a. Activity against Trypanosoma brucei rhodesiense STIB900. This stock was isolated in 1982 from a human patient in Tanzania and after several mouse passages cloned and adapted to axenic culture conditions (Baltz et al 1985) Minimum Essential Medium (50 µl) supplemented with 25 mM HEPES, 1g/l additional glucose, 1% MEM non-essential amino acids (100x), 0.2 mM 2-mercaptoethanol, 1 mM Na-pyruvate and 15% heat inactivated horse serum was added to each well of a 96-well microtiter plate. Serial drug dilutions of eleven 3-fold dilution steps covering a range from 100 to 0.002 µg/ml were prepared. Then 4x10^3 bloodstream forms of T. b. rhodesiense STIB 900 in 50 µl was added to each well and the plate incubated at 37 °C under a 5 % CO2 atmosphere for 70 h. 10 µl Alamar Blue (resazurin, 12.5 mg in 100 ml double-distilled water) was then added to each well and incubation continued for a further 2-4 h (Raz et al 1997). Then the plates were read with a Spectramax Gemini XS microplate fluorometer (Molecular Devices Cooperation, Sunnyvale, CA, USA) using an excitation wave length of 536 nm and an emission wave length of 588 nm. The IC50 values were calculated by linear regression (Huber 1993) from the sigmoidal dose inhibition curves using SoftmaxPro software (Molecular Devices Cooperation, Sunnyvale, CA, USA). Melarsoprol (Arsobal Sanofi-Aventis, received from WHO) is used as control. • b. Activity against T. cruzi. Rat skeletal myoblasts (L-6 cells) were seeded in 96-well microtitre plates at 2000 cells/well in 100 µL RPMI 1640 medium with 10% FBS and 2 mM I-glutamine. After 24 h the medium was removed and replaced by 100 µl per well containing 5000 trypomastigote forms of T. cruzi Tulahuen strain C2C4 containing the β-galactosidase (Lac Z) gene (Buckner et al. 1996). After 48 h the medium was removed from the wells and replaced by 100 µl fresh medium with or without a serial drug dilution of eleven 3-fold dilution steps covering a range from 100 to 0.002 µg/ml. After 96 h of incubation the plates were inspected under an inverted microscope to assure growth of the controls and sterility. Then the substrate CPRG/Nonidet (50 µl) was added to all wells. A color reaction developed within 2-6 h and could be read photometrically at 540 nm. Data were analyzed with the graphic programme Softmax Pro (Molecular Devices), which calculated IC50 values by linear regression (Huber 1993) from the sigmoidal dose inhibition curves. […] Activity against L. donovani axenic amastigotes. Amastigotes of L. donovani strain MHOM/ET/67/L82 were grown in axenic culture at 37 °C in SM medium (Cunnigham et al. 1977) at pH 5.4 supplemented with 10% heat-inactivated fetal bovine serum under an atmosphere of 5% CO2 in air. One hundred microlitres of culture medium with 10^5 amastigotes from axenic culture with or without a serial drug dilution were seeded in 96-well microtitre plates. Serial drug dilutions of eleven 3-fold dilution steps covering a range from 90 to 0.002 µg/ml were prepared. After 70 h of incubation the plates were inspected under an inverted microscope to assure growth of the controls and sterile conditions. 10 µl of Alamar Blue (12.5 mg resazurin dissolved in 100 ml distilled water) (Mikus and Steverdig. 2000) were then added to each well and the plates incubated for another 2 h. Then the plates were read with a Spectramax Gemini XS microplate fluorometer (Molecular Devices Cooperation, Sunnyvale, CA, USA) using an excitation wave length of 536 nm and an emission wave length of 588 nm. Data were analyzed using the software Softmax Pro (Molecular Devices Cooperation, Sunnyvale, CA, USA). Decrease of fluorescence (= inhibition) was expressed as percentage of the fluorescence of control cultures and plotted against the drug concentrations. From the sigmoidal inhibition curves the IC50 values were calculated. • d.

[2] = tested on: T. cruzi Tulahuen strain C2C4; assay: Activity against T. cruzi in L-6 cells (beta-galactosidase, CPRG); format: cell-based; details: Trypanosoma cruzi, TULAHUEN, L6
Experimental: as §5

[3] = tested on: P. falciparum NF54 strain; assay: Activity against P. falciparum, 3H-hypoxanthine incorporation assay; format: cell-based; details: Plasmodium falciparum, NF54
[4] = tested on: Trypanosoma brucei rhodesiense STIB900; assay: Activity against Trypanosoma brucei rhodesiense STIB900 (Alamar Blue); format: cell-based; details: Trypanosoma brucei
Experimental: as §5

CCOC(=O)/C=C/C(=O)[C@H](C)NC(=O)[C@H](CC(C)C)NC(=O)OCc1ccccc1
FP2(K2nd(M-1s-1)) (Falcipain 2): 12013 M⁻¹ s⁻¹ | pIC50 (Falcipain 2; 25 °C, pH 5.5, 25µM substrate): 5.93 | CB(K2nd(M-1s-1)) (Cathepsin B (human)): 85470 M⁻¹ s⁻¹ | pIC50 (Cathepsin B (human)): 7.15 | CR(K2nd(M-1s-1)) (cruzain (CR)): 14412 M⁻¹ s⁻¹ | pIC50 (cruzain (CR)): 6.20 | CL(K2nd(M-1s-1)) (Cathepsin L (human); CL=CathepsinL): 9821 M⁻¹ s⁻¹ | pIC50 (Cathepsin L (human); read-out: CL(IC50); CL=CathepsinL; 25 °C, pH 6.5, 6,25 µM substrate): 6.26 | RD(K2nd(M-1s-1)) (Rhodesain): 14207 M⁻¹ s⁻¹ | pIC50 (Rhodesain): 6.10

CCCCCCCCCCCCCCCCOP(=O)([O-])OCC[N+](C)(C)C [Miltefosine, reference compound]
IC50 ([1]; 70 h, pH 5.4, replicate 2, axenic amastigotes, pH 5.4, 70 h, read-out: L.don. ax am IC50 repl2): 0.071 µg/mL (≈ 0.174 µM) | L.don. ax am IC50 mean ([1]; mean of replicates): 0,059 micrograms/mL and 1,44 micrograms/mL | L.don. ax am IC50 repl1 ([1]; replicate 1, axenic amastigotes, pH 5.4, 70 h): 0,046 micrograms/mL and 1,44 micrograms/mL

CCOC(=O)/C=C/C(=O)[C@H](CCc1ccccc1)NC(=O)[C@H](CC(C)C)NC(=O)OCc1ccccc1 [FGA-47]
IC50 ([2]; mean of replicates, read-out: T.cruzi. IC50 mean): 3.63 µg/mL (≈ 7.14 µM) | IC50 ([2]; replicate 1, L-6 cells, 96 h, read-out: T.cruzi. IC50 repl1): 5.17 µg/mL (≈ 10.2 µM) | IC50 ([2]; replicate 2, L-6 cells, 96 h, read-out: T.cruzi. IC50 repl2): 2.09 µg/mL (≈ 4.11 µM) | IC50 ([1]; mean of replicates, read-out: L.don. ax am IC50 mean): 0.048 µg/mL (≈ 0.0944 µM) | IC50 ([1]; replicate 1, axenic amastigotes, pH 5.4, 70 h, read-out: L.don. ax am IC50 repl1): 0.044 µg/mL (≈ 0.0865 µM) | IC50 ([1]; replicate 2, axenic amastigotes, pH 5.4, 70 h, read-out: L.don. ax am IC50 repl2): 0.052 µg/mL (≈ 0.102 µM) | IC50 ([3]; mean of replicates, read-out: P.falc NF54 IC50 mean): 0.821 µg/mL (≈ 1.61 µM) | IC50 ([3]; replicate 1, erythrocytic stages, read-out: P.falc NF54 IC50 repl1): 0.921 µg/mL (≈ 1.81 µM) | IC50 ([3]; replicate 2, erythrocytic stages, read-out: P.falc NF54 IC50 repl2): 0.72 µg/mL (≈ 1.42 µM) | IC50 ([4]; 70 h, replicate 1, bloodstream forms, 70 h, read-out: T.b.rhod. IC50 repl1): 1.68 µg/mL (≈ 3.3 µM) | IC50 ([4]; 70 h, replicate 2, bloodstream forms, 70 h, read-out: T.b.rhod. IC50 repl2): 0.675 µg/mL (≈ 1.33 µM) | IC50 ([4]; mean of replicates, read-out: T.b.rhod. IC50 mean): 1.18 µg/mL (≈ 2.32 µM)

CCOC(=O)/C=C/[C@@H](O)[C@H](CCc1ccccc1)NC(=O)[C@H](Cc1ccccc1)NC(=O)OCc1ccccc1
FP2(K2nd(M-1s-1)) (Falcipain 2): 557 M⁻¹ s⁻¹ | CB(K2nd(M-1s-1)) (Cathepsin B (human)): 772 M⁻¹ s⁻¹ | pIC50 (Cathepsin B (human)): 4.62 | CL(K2nd(M-1s-1)) (Cathepsin L (human); CL=CathepsinL): 1127 M⁻¹ s⁻¹ | pIC50 (Cathepsin L (human); CL=CathepsinL; 25 °C, pH 6.5, 6,25 µM substrate; read-out: CL(IC50)): 4.89 | RD(K2nd(M-1s-1)) (Rhodesain): 3207 M⁻¹ s⁻¹ | pIC50 (Rhodesain): 5.02
